Test results: US9017974B2, “Method for the synthesis of porphyrin-phospholipid conjugates” (priority 2011, dated 2015)

Tests used:
Type in all cases: biochemical
[1] = molecular target: Lipase from Pseudomonas cepacia (Burkholderia cepacia, UniProt P22088); details: 37 C, 3 hours, 0.025% Triton X100, 5 mM Tris pH 8, HPLC/MS
[2] = molecular target: T1, Lipase from Rhizomucor miehei (Rhizomucor miehei, UniProt P19515); details: 37 C, 3 hours, 0.025% Triton X100, 5 mM Tris pH 8, HPLC/MS
T1 sequence (P19515 95-363): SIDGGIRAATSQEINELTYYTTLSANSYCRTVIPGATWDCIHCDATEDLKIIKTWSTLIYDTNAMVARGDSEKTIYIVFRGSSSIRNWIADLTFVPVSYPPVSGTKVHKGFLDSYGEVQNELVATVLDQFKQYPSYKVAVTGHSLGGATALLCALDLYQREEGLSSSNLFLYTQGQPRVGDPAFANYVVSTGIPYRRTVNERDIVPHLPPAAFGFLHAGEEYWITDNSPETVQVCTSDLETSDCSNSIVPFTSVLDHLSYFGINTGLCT

[3] = molecular target: Lipase from Thermomyces lanuginosus (LTL) (Thermomyces lanuginosus, UniProt O59952); details: pH 8
Sequence of Lipase from Thermomyces lanuginosus (LTL) (O59952 23-291): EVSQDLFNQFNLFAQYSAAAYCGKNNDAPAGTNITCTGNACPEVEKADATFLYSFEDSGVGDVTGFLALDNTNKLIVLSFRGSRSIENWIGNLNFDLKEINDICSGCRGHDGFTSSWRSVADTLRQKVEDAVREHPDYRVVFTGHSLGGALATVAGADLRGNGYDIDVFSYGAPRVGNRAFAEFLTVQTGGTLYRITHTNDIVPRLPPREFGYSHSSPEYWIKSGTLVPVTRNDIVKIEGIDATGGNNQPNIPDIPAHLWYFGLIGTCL

Sequence of Lipase from Pseudomonas cepacia (P22088 45-364): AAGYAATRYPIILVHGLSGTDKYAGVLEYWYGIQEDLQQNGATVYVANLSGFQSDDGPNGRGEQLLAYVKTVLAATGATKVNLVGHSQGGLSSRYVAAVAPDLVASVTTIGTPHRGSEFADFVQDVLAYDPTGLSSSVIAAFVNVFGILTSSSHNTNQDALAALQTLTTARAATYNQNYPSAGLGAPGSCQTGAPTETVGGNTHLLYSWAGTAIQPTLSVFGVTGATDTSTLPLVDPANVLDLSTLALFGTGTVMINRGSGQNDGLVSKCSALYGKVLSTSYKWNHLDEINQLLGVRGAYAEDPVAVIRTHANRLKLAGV

## C=Cc1c(C)c2cc3nc(c4c5[nH]c(cc6nc(cc1[nH]2)C(C)=C6CC)c(C)c5C(=O)C4)[C@@H](CCC(=O)O[C@H](COC(=O)CCCCCCCCCCCCCCC)COP(=O)([O-])OCC[N+](C)(C)C)[C@@H]3C [sn-2 pyro-lipid]
[1]
  cleavage of pyro-lipid regioisomer by lipase from Pseudomonas cepacia: preferentially cleaved
[2]
  cleavage of pyro-lipid regioisomer by lipase from Rhizomucor miehei: preferentially cleaved
[3]
  cleavage of pyro-lipid regioisomer by LTL: selectively cleaved
